Test results taken from patent publication US9840512B2, “Antidiabetic bicyclic compounds” (Merck Sharp & Dohme Corp., priority 2013, dated 2017).

target: T1, human GPR40 (Homo sapiens, UniProt O14842); test: FLIPR assay (agonist-induced calcium mobilization); details: CHONFAT, read-out: Human FLIPR EC50, nM or % activation (% activation values)
T1 sequence (O14842 whole entry): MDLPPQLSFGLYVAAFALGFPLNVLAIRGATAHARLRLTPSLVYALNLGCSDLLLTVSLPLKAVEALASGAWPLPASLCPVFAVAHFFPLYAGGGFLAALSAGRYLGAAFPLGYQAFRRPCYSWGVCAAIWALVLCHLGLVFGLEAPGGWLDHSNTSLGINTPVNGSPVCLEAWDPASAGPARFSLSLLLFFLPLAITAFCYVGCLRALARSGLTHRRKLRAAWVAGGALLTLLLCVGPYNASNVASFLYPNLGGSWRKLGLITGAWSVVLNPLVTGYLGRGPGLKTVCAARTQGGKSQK
Description: Human and mouse GPR40 stable cell-lines were generated in CHO cells stably expressing NFAT BLA (Beta-lactamase). […] The expression plasmids were transfected using lipofectamine (Life Technologies) following manufacturer's instructions. Stable cell-lines were generated following drug selection.
FLIPR (Fluorimetric Imaging Plate Reader, Molecular Devices) assays were performed to measure agonist-induced calcium mobilization of the stable clones. For the FLIPR assay, one day before assay, GPR40/CHO NFAT BLA cells were seeded into black-wall-clear-bottom 384-well plates (Costar) at 1.4×10e4 cells/20 μL medium/well. The cells were incubated with 20 μl/well of the assay buffer (HBSS, 0.1% BSA, 20 mM HEPES, 2.5 mM probenecid, pH 7.4) containing 8 μM fluo-4, AM, 0.08% pluronic acid at room temperature for 100 minutes. Fluorescence output was measured using FLIPR. Compounds were dissolved in DMSO and diluted to desired concentrations with assay buffer.

Point of comparison: `COc1ccccc1C(CC(=O)O)c1ccc2c(c1)CCC(c1cccc(-c3c(C)cccc3C)c1)O2` (stereo not shown) [Example 45], activation at 10 µM 12.5%. Against it:
- O=C(O)CCc1ccc2c(c1)CCC(c1ccccc1)O2 (racemic) [Example 2] — higher, 79%
- Cc1cccc(C)c1-c1cccc(C2CC(=O)c3cc(CCC(=O)O)ccc3O2)c1 (racemic) [Example 7, 3-(2-(2′,6′-dimethyl-[1,1′-biphenyl]-3-yl)-4-oxochroman-6-yl)propanoic acid] — higher, 70%
- COc1cccc(C(CC(=O)O)c2ccc3c(c2)CCC(c2cccc(-c4c(C)cccc4C)c2)O3)c1 (stereo not shown) [Example 46] — higher, 41%
- COc1ccc(C(CC(=O)O)c2ccc3c(c2)CCC(c2cccc(-c4c(C)cccc4C)c2)O3)cc1 (stereo not shown) [Example 47] — higher, 61%

same assay, conditions: Human FLIPR EC50, nM or % activation (EC50 values), GPR40/CHO NFAT BLA cells

Point of comparison: `CC#CC(CC(=O)O)c1ccc2c(c1)CCC(c1ccc(C(F)(F)F)c(Cl)c1)O2` (mixture of isomers) [Example 18], EC50 1540 nM. Against it:
- CC#CC(CC(=O)O)c1ccc2c(c1)CCC(c1nc(-c3cccnc3C(F)(F)F)ccc1F)O2 (mixture of isomers) [Example 20] — 9-fold lower, 172 nM
- CC#CC(CC(=O)O)c1ccc2c(c1)CCC(c1cccc(-c3cccnc3C)c1)O2 (mixture of isomers) [Example 26] — 6.3-fold lower, 244 nM
- CC#C[C@@H](CC(=O)O)c1ccc2c(c1)CCC(c1cc(-c3ccc(C(F)(F)F)cc3)ccc1F)O2 (mixture of isomers) [Example 29] — 9.5-fold lower, 162 nM
- CC#C[C@@H](CC(=O)O)c1ccc2c(c1)CCC(c1cc(-c3cc(OC)ccc3F)ccc1F)O2 (mixture of isomers) [Example 30] — 12-fold lower, 128 nM
- Cc1cccc(C)c1-c1cccc(C2CCc3cc(C(CC(=O)O)c4ccccn4)ccc3O2)c1 (mixture of isomers) [Example 34] — 2.1-fold lower, 734 nM
- Cc1cccc(C)c1-c1cccc(C2CCc3cc(C(CC(=O)O)C4CC4)ccc3O2)c1 (mixture of isomers) [Example 43] — within 1.5-fold, 2040 nM
- Cc1ccccc1-c1cccc(C2CCc3cc4c(cc3O2)OC[C@H]4CC(=O)O)c1F (mixture of isomers) [Example 58] — within 1.5-fold, 1040 nM
- Cc1cccc(C)c1-c1cccc(C2CC(F)(F)c3cc(CCC(=O)O)ccc3O2)c1 (racemic) [Example 8, 3-(2-(2′,6′-dimethyl-[1,1′-biphenyl]-3-yl)-4,4-difluorochroman-6-yl)propanoic acid] — 4.4-fold lower, 349 nM
- CC#C[C@@H](CC(=O)O)c1ccc2c(c1)CCC(c1cc(-c3cccnc3C(F)(F)F)ccc1F)O2 (single isomer, unassigned) [Example 36] — 8.7-fold lower, 178 nM
- CC#C[C@@H](CC(=O)O)c1ccc2c(c1)CCC(c1cccc(-c3c(C)noc3C)c1)O2 (single isomer, unassigned) [Example 39] — 14-fold lower, 113 nM
- CC#C[C@@H](CC(=O)O)c1ccc2c(c1)CCC(c1cccc(-c3c(C)noc3C)c1)O2 (single isomer, unassigned) [Example 40] — 6-fold lower, 255 nM
- CC#CC(CC(=O)O)c1ccc2c(c1)OC(c1ccc(-c3c(C)cccc3C)cc1)CC2 (single isomer, unassigned) [Example 53] — within 1.5-fold, 2140 nM
- CC#CC(CC(=O)O)c1ccc2c(c1)OC(c1ccc(-c3c(C)cccc3C)cc1)CC2 (single isomer, unassigned) [Example 54] — within 1.5-fold, 1090 nM
- Cc1cccc(C)c1-c1cccc(C2CCc3cc(-c4cc(=O)[nH][s+]4[O-])ccc3O2)c1 [Example 9, (1R)-5-(2-(2′,6′-dimethyl-[1,1′-biphenyl]-3-yl)chroman-6-yl)isothiazol-3(2H)-one 1-oxide] — within 1.5-fold, 1920 nM
- Cc1cccc(C)c1-c1cccc(C2CCc3nc(CCC(=O)O)ccc3O2)c1 (stereo not shown) [Example 10, 3-(2-(2′,6′-dimethyl-[1,1′-biphenyl]-3-yl)-3,4-dihydro-2H-pyrano[3,2-b]pyridin-6-yl)propanoic acid] — within 1.5-fold, 1310 nM
- Cc1cccc(C)c1-c1cccc(C2CCc3cc4c(cc3O2)OC[C@H]4CC(=O)O)c1 (stereo partly drawn) [Example 55, 2-((3S)-7-(2′,6′-dimethyl-[1,1′-biphenyl]-3-yl)-3,5,6,7-tetrahydro-2H-furo[3,2-g]chromen-3-yl)acetic acid] — 6.2-fold lower, 247 nM
- Cc1ccccc1-c1ccc(C2CCc3cc4c(cc3O2)OC[C@H]4CC(=O)O)c(F)c1 (stereo partly shown) [Example 57] — within 1.5-fold, 1050 nM

target: T1, human GPR40; test: Inositol Phosphate Turnover (IP1) Assay 2; type: cell-based; set-up: expressed in transfected cells; details: HEK cells stably expressing human GPR40, Table 2, read-out: Human IP1
Method in brief: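 HEK cells stably expressing human GPR40 (aequorin reporter background) seeded and grown 16 h at 37 °C, then treated with compound in IP-One stimulation buffer for 60 min at 37 °C. IP1 accumulation detected by HTRF/FRET after 60 min with detection reagents in the dark.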

Work on `COc1ccc(F)c(-c2ccc(C3CCc4ccc(C(CC(=O)O)C5CC5)nc4O3)cc2)c1` (stereo not shown) [Example 136, 3-cyclopropyl-3-(2-(2′-fluoro-5′-methoxy-[1,1′-biphenyl]-4-yl)-3,4-dihydro-2H-pyrano[2,3-b]pyridin-7-yl)propanoic acid] yielded an EC50 of 217 nM.

same assay, conditions: HEK cells stably expressing human GPR40, Table 3, read-out: Human IP1 activity

Point of comparison: `COc1ccc(F)c(-c2ccc([C@@H]3COc4ccc([C@H](C5CC5)[C@H](C)C(=O)O)cc4O3)cc2Cl)c1` [Example 178], EC50 10.6 nM. Against it:
- COc1ccc(F)c(-c2ccc([C@@H]3COc4ccc([C@H](C5CC5)[C@H](C)C(=O)O)cc4O3)c(C(F)(F)F)n2)c1 [Example 162, (2S,3R)-3-cyclopropyl-3-((R)-3-(6-(2-fluoro-5-methoxyphenyl)-2-(trifluoromethyl)-pyridin-3-yl)-2,3-dihydrobenzo[b][1,4]dioxin-6-yl)-2-methylpropanoic acid] — within 1.5-fold, 8.2 nM
- COc1ccc(F)c(-c2ccc([C@@H]3COc4ccc([C@H](C5CC5)[C@H](C)C(=O)O)cc4O3)cc2C(OC)C(C)(C)C)c1 (stereo partly shown) [Example 163] — 5-fold lower, 2.1 nM
- COc1ccc(F)c(-c2ccc([C@@H]3COc4ccc([C@H](C5CC5)[C@H](C)C(=O)O)cc4O3)nc2C(F)(F)F)c1 [Example 164] — within 1.5-fold, 8.2 nM
- COc1ccc(F)c(-c2ccc(C3COc4ccc([C@H](C5CC5)[C@H](C)C(=O)O)cc4O3)cc2)c1 (stereo partly shown) [Example 170] — 62-fold lower, 0.17 nM
- CC#C[C@@H](CC(=O)O)c1ccc2c(c1)OCC(c1ccc(-c3cc(OC)ccc3F)cc1)O2 (stereo partly shown) [Example 175] — 21-fold higher, 220 nM
- COc1ccc(F)c(-c2ccc([C@H]3COc4ccc([C@H](C5CC5)[C@H](C)C(=O)O)cc4O3)cc2Cl)c1 [Example 179] — 1.5-fold higher, 16.3 nM
- COc1ccc(F)c(-c2ccc([C@@H]3COc4ccc([C@H](C5CC5)[C@H](C)C(=O)O)cc4O3)cc2-c2cccc3ccn(C)c23)c1 [Example 180] — 2.2-fold lower, 4.8 nM
- COc1ccc(F)c(-c2ccc([C@H]3COc4ccc([C@H](C5CC5)[C@H](C)C(=O)O)cc4O3)cc2-c2cccc3ccn(C)c23)c1 [Example 181] — within 1.5-fold, 8.3 nM
- COc1ccc(F)c(-c2ccc([C@H]3COc4ccc([C@H](C5CC5)[C@@H](C)C(=O)O)cc4O3)cc2Cl)c1 [Example 183] — 9.4-fold higher, 99.6 nM
- COc1ccc(F)c(-c2ccc(C3COc4ccc([C@H](C5CC5)[C@H](C)C(=O)O)c(F)c4O3)cc2)c1 (stereo partly shown) [Example 184] — 6.6-fold lower, 1.6 nM
- C[C@H](C(=O)O)[C@H](c1ccc2c(c1)O[C@H](C1CN([C@H](C)c3cc(C(F)(F)F)ccc3C(F)(F)F)C1)CO2)C1CC1 [Example 189, (2S,3R)-3-((R)-3-(1-((R)-1-(2,5-bis(trifluoromethyl)phenyl)ethyl)azetidin-3-yl)-2,3-dihydrobenzo[b][1,4]dioxin-6-yl)-3-cyclopropyl-2-methylpropanoic acid] — within 1.5-fold, 13.3 nM
- C[C@H](C(=O)O)[C@H](c1ccc2c(c1)O[C@H](C1CN([C@@H](C)c3cc(C(F)(F)F)ccc3C(F)(F)F)C1)CO2)C1CC1 [Example 190] — 1.9-fold higher, 20.3 nM
